Results taken from ChEMBL document CHEMBL3399949, “Fingerprint-based consensus virtual screening towards structurally new 5-HT(6)R ligands” (Bioorg Med Chem Lett, 2015).

test: Dissociation constant, pKa of the compound; format: physicochemical

SMILES | pKa
Brc1ccc2c(c1)c1c3n2CCN(Cc2ccccc2)C3CCC1 (centres undefined) | 6.95
Cc1ccc(S(=O)(=O)N/N=C2\CCCc3c2[nH]c2ccc(Cl)cc32)cc1 | -0.33
COc1cccc(-n2cc(C(=O)N(C)c3cccc(Cl)c3)c3ccccc3c2=O)c1 | -1.37
NC(=O)C1CCN(c2c(S(=O)(=O)c3ccccc3)cnc3ccc(Cl)cc23)CC1 | 3.05
Cc1ccc(S(=O)(=O)c2cnc3ccc(F)cc3c2SCc2ccc(Cl)cc2)cc1 | -0.25
COCCn1c(C)c(C)c(S(=O)(=O)c2ccc(Cl)cc2)c1N | -0.59
Cc1ccc(Cl)cc1N(C)C(=O)c1cn(-c2ccc(F)cc2F)c(=O)c2ccccc12 | -1.07

Further lines, results first:

pKa | SMILES
3.48 | O=S(=O)(Nc1cc(Sc2cccc3cccnc23)c(O)c2ccccc12)c1ccc(F)cc1
3.48 | O=S(=O)(Nc1cc(Sc2cccc3cccnc23)c(O)c2ccccc12)c1ccccc1
1.93 | O=S(=O)(Nc1ccn(Cc2cccc3ccccc23)n1)c1ccc(Br)s1
5.56 | O=S(=O)(Nc1cc2c(c3ccccc13)OC1(N3CCOCC3)CCCCC21)c1ccccc1 (centres undefined)
-0.69 | Nc1c(S(=O)(=O)c2ccccc2)sc2nc(-c3ccccc3)cc(-c3ccccc3)c12
5.3 | O=S(=O)(Nc1ccccc1-c1nccc2ccccc12)c1ccc(Cl)cc1
2.34 | Cc1ccc(Nc2c(S(=O)(=O)c3ccccc3)cnc3ccc(Cl)cc23)cc1
